Test results taken from patent publication US20250289789A1, “REVERSIBLE LYSINE COVALENT MODIFIERS OF CDK2 AND USES THEREOF” (Terremoto Biosciences, Inc., priority 2023, published 2025).
Read-outs that look alike come from different tables or passages of the source.

What was measured:
Type in all cases: cell-based
[1] = molecular target: T1, CDK4-NanoLuc fusion with CCND1 in 293T or 293 cells (Homo sapiens, UniProt P11802); assay: NanoBRET Target Engagement (TE) Intracellular Kinase Assay, CDK4/CCND1; details: NanoBRET TE intracellular kinase assay, 2-hour incubation, read-out: NanoBRET-CDK4/D1 IC50
T1 construct: host or cells: 293T (ATCC CRL-3216) or 293 (ATCC CRL-1573)
T1 sequence (P11802 whole entry, the tested form may be a part): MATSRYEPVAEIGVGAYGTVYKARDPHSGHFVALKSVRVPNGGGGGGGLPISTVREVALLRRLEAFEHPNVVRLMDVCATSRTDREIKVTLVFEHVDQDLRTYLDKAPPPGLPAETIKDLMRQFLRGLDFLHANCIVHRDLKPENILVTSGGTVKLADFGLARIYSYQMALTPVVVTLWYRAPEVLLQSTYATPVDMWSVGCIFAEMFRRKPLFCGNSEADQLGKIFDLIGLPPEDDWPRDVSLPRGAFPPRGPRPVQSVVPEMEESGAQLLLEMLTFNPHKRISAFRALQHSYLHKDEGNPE
T1 sequence (P24385 whole entry partner, the tested form may be a part): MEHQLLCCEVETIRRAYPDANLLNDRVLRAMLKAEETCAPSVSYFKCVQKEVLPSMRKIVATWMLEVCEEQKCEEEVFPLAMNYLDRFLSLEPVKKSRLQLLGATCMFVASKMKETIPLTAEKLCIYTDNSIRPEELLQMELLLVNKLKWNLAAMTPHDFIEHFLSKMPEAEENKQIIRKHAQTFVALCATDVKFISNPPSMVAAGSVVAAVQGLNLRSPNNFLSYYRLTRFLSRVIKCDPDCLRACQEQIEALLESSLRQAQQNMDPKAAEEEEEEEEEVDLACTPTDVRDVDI

[2] = molecular target: T2, CDK2-NanoLuc fusion with CCNE1 in 293T or 293 cells (Homo sapiens, UniProt P24941); assay: NanoBRET Target Engagement (TE) Intracellular Kinase Assay, CDK2/CCNE1; details: NanoBRET TE intracellular kinase assay, 2-hour incubation, read-out: NanoBRET-CDK2/E1 IC50
T2 construct: host or cells: 293T (ATCC CRL-3216) or 293 (ATCC CRL-1573)

[3] = molecular target: T3, CDK1-NanoLuc fusion with CCNB1 in 293T or 293 cells (Homo sapiens, UniProt P06493); assay: NanoBRET Target Engagement (TE) Intracellular Kinase Assay, CDK1/CCNB1; details: NanoBRET TE intracellular kinase assay, 2-hour incubation, read-out: NanoBRET-CDK1/B1 IC50
T3 construct: host or cells: 293T (ATCC CRL-3216) or 293 (ATCC CRL-1573)
T3 sequence (P06493 whole entry, the tested form may be a part): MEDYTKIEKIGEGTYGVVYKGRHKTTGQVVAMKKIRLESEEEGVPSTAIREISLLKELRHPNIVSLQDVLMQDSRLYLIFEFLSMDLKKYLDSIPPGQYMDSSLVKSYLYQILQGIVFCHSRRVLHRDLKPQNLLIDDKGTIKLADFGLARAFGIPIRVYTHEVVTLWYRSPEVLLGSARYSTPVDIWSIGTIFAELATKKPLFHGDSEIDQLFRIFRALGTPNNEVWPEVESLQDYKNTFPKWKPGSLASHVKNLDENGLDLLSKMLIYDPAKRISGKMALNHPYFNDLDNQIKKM
T3 sequence (P14635 whole entry partner, the tested form may be a part): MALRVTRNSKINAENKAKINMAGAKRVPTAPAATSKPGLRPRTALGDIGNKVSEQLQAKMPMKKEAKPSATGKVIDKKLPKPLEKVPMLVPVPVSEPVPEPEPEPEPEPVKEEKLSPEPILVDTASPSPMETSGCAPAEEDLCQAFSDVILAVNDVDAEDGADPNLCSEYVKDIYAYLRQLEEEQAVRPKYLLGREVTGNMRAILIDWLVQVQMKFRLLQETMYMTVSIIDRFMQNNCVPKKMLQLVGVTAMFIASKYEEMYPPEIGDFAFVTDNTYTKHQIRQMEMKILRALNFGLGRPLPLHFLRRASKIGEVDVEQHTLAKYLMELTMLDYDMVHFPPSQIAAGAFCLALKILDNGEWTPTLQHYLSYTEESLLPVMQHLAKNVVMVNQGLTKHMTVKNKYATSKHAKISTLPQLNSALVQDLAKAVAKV
Outline: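 IC50 derived by four-parameter logistic fit of DMSO-normalized acceptor/donor (610/450 nm) BRET ratio. Compound and Tracer K-10 were applied together for 2 h at 37° C to 293 or 293T cells transfected 24 h earlier with CDK1-NanoLuc fusion and cyclin B1.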

[4] = system: Phospho-Rb Ser807/811 in OVCAR3 cells; assay: OVCAR3 Phospho-Rb Ser807/811 HTRF assay; details: Homo sapiens, OVCAR-3, 1 h, read-out: pRb-OVCAR3 IC50
Protocol: Cells were trypsinized and resuspended in 1 mM hydroxyurea (Sigma; H8627), 90% RPMI and 10% fetal bovine serum. […] Dose response curve normalized to DMSO control was plotted using four-parameter logistic model for IC50 calculation.

[5] = OVCAR3 cells, Phospho-Rb Ser807/811 HTRF, 1 hour incubation

SMILES	IC50 [1] [nM]	IC50 [2] [nM]	IC50 [3] [nM]	IC50 [4, 5] [nM]	IC50 [4] [nM]
CC(C)NC(=O)O[C@@H]1CC[C@H](c2cc(NC(=O)c3cc(COc4cccc(O)c4C=O)nn3C)n[nH]2)C1 [Compound 27, (1R,3S)-3-{5-[5-(2-formyl-3-hydroxyphenoxymethyl)-2-methylpyrazole-3-amido]-2H-pyrazol-3-yl}cyclopentyl N-isopropylcarbamate]	112	5.24	17.7	95.2	
CC(C)NC(=O)O[C@@H]1CC[C@H](c2cc(NC(=O)COc3cccc(Cl)c3C=O)n[nH]2)C1 [Compound 97, (1R,3S)-3-{5-[2-(3-chloro-2-formylphenoxy)acetamido]-2H-pyrazol-3-yl}cyclopentyl N-isopropylcarbamate]	9440	8.75	1140	3020	
COc1cc(O)c(C=O)c(OCC(=O)Nc2cc([C@H]3CC[C@@H](OC(=O)N4C5CCC4CC5)C3)[nH]n2)c1 [Compound 229]	1900	1.75	1.97	28.8	
CC(C)NC(=O)O[C@@H]1CC[C@H](c2cc(Nc3cc(OCc4cccc(O)c4C=O)ccn3)n[nH]2)C1 [Compound 25, (1R,3S)-3-[5-({4-[(2-formyl-3-hydroxyphenyl)methoxy]pyridine-2-yl}amino)-2H-pyrazol-3-yl]cyclopentyl N-isopropylcarbamate]	1210	9.94	299	1330	
CC(C)NC(=O)O[C@@H]1CC[C@H](c2cc(NC(=O)c3cc(-c4cnccc4C=O)nn3C)n[nH]2)C1 [Compound 44, (1R,3S)-3-(3-(3-(4-formylpyridin-3-yl)-1-methyl-1H-pyrazole-5-carboxamido)-1H-pyrazol-5-yl)cyclopentyl isopropylcarbamate; trifluoroacetic acid]	1550	6.37	168	485	
CC1(NC(=O)O[C@@H]2CC[C@H](c3cc(NC(=O)COc4cccc(O)c4C=O)n[nH]3)C2)CCC1 [Compound 83, (1R,3S)-3-{5-[2-(2-formyl-3-hydroxyphenoxy)acetamido]-2H-pyrazol-3-yl}cyclopentyl N-(1-methylcyclobutyl) carbamate; trifluoroacetic acid]	2490	4.75	6.23	83.3	
O=Cc1c(O)cccc1OCC(=O)Nc1cc([C@H]2CC[C@@H](OC(=O)NC3CCC3)C2)[nH]n1 [Compound 87, (1R,3S)-3-(3-(2-(2-formyl-3-hydroxyphenoxy)acetamido)-1H-pyrazol-5-yl)cyclopentyl cyclobutylcarbamate]	9800	2.77	24.3	208	
CC(C)NC(=O)O[C@H]1C[C@@H](c2cc(NC(=O)COc3cccc(O)c3C=O)n[nH]2)C1 [Compound 114, (1s,3s)-3-(3-(2-(2-formyl-3-hydroxyphenoxy)acetamido)-1H-pyrazol-5-yl)cyclobutyl isopropylcarbamate]	> 10000	4.44	26.7	121	
CC(C)NC(=O)O[C@@H]1CC[C@H](c2cc(NC(=O)CCc3cccc(O)c3C=O)n[nH]2)C1 [Compound 7, (1R,3S)-3-(3-(3-(2-formyl-3-hydroxyphenyl)propanamido)-1H-pyrazol-5-yl)cyclopentyl isopropylcarbamate trifuoroacetic acid]	1850	11.4	275		1500
COc1cc(O)c(C=O)c(OCC(=O)Nc2cc([C@H]3CC[C@@H](OC(=O)NC[C@@H](C)OC)C3)[nH]n2)c1 [Compound 202]	> 10000	5.67	41.6	70.5	
CC(C)NC(=O)O[C@@H]1CC[C@H](c2cc(NC(=O)Cc3cnc(-c4cccc(O)c4C=O)s3)n[nH]2)C1 [Compound 67, (1R,3S)-3-(3-(2-(2-(2-formyl-3-hydroxyphenyl)thiazol-5-yl)acetamido)-1H-pyrazol-5-yl)cyclopentyl isopropylcarbamate; trifluoroacetic acid]	202	6.73	35.3	475	

Further lines, with some results ahead:

IC50 [1] [nM]	IC50 [2] [nM]	IC50 [3] [nM]	IC50 [4, 5] [nM]	SMILES	IC50 [4] [nM]
9910	4.44	15	64.6	C#C[C@H](C)NC(=O)O[C@@H]1CC[C@H](c2cc(NC(=O)COc3cc(OC)cc(O)c3C=O)n[nH]2)C1 [Compound 216]	
> 10000	26.7	61	299	CC(C)NC(=O)O[C@@H]1CC[C@H](c2cc(NC(=O)COc3cc(Cl)cc(O)c3C=O)n[nH]2)C1 [Compound 73, (1R,3S)-3-(3-(2-(5-chloro-2-formyl-3-hydroxyphenoxy)acetamido)-1H-pyrazol-5-yl)cyclopentyl isopropylcarbamate]	
2420	16.4	78	941	CC(C)NC(=O)O[C@@H]1CC[C@H](c2cc(NC(=O)c3cc(Oc4cccc(O)c4C=O)nn3C)n[nH]2)C1 [Compound 19, (1R,3S)-3-{5-[5-(2-formyl-3-hydroxyphenoxy)-2-methylpyrazole-3-amido]-2H-pyrazol-3-yl}cyclopentyl N-isopropylcarbamate]	
3950	7.06	29.5	523	COc1ccc(-c2cc(C(=O)Nc3cc([C@H]4CC[C@@H](OC(=O)NC(C)C)C4)[nH]n3)n(C)n2)c(C=O)c1O [Compound 74, (1R,3S)-3-{5-[5-(2-formyl-3-hydroxy-4-methoxyphenyl)-2-methylpyrazole-3-amido]-2H-pyrazol-3-yl}cyclopentyl N-isopropylcarbamate; trifluoroacetic acid]	
4090	6.48	30.6	326	Cc1cc(O)c(C=O)c(O[C@@H](C)C(=O)Nc2cc([C@H]3CC[C@@H](OC(=O)NC(C)C)C3)[nH]n2)c1 [Compound 252]	
3900	5.53	290	2120	CC(C)NC(=O)O[C@@H]1CC[C@H](c2cc(NC(=O)c3cc(C(=O)Nc4ccccc4C=O)nn3C)n[nH]2)C1 [Compound 21, (1R,3S)-3-(5-{5-[(2-formylphenyl)carbamoyl]-2-methylpyrazole-3-amido}-2H-pyrazol-3-yl)cyclopentyl N-isopropylcarbamate; trifluoroacetic acid]	
44.3	3.05	8.93	46.5	COc1cc(O)c(C=O)c(OCc2cc(C(=O)Nc3cc([C@H]4CC[C@@H](OC(=O)NC(C)C)C4)[nH]n3)n(C)n2)c1 [Compound 77]	
966	1.22	4.13	15.1	COc1cc(O)c(C=O)c(OCC(=O)Nc2cc([C@H]3CC[C@@H](OC(=O)NC4(C)CC4)C3)[nH]n2)c1 [Compound 251, (1R,3S)-3-(3-(2-(2-formyl-3-hydroxy-5-methoxyphenoxy)acetamido)-1H-pyrazol-5-yl)cyclopentyl (1-methylcyclopropyl)carbamate]	
1310	9.73	165	1440	CC(C)NC(=O)O[C@@H]1CC[C@H](c2cc(NC(=O)[C@H]3C[C@@H](Oc4cccc(O)c4C=O)C3)n[nH]2)C1 (single isomer, unassigned) [Compound 94]	
